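48-hour exposure; five concentrations; linearly interpolated endpoints. GI50 is the concentration that inhibits growth by half.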 Calls of active or inactive are those of the source. Rule as the data show it: active = GI50 up to about 1.1 µM and inactive = higher.
Experiments:
Test in all cases: inhibition of tumour cell growth, NCI panel, 48 h
786-0 = test system: 786-0
A498 = test system: A498
ACHN = test system: ACHN
CCRF-CEM = test system: CCRF-CEM
COLO 205 = test system: COLO 205
DMS-114 = test system: DMS-114
HCT-15 = test system: HCT-15
HOP-92 = test system: HOP-92
K562 = test system: K562
Malme-3M = test system: Malme-3M
NCI-H23 = test system: NCI-H23
OVCAR-5 = test system: OVCAR-5
SF-268 = test system: SF-268
SNB-19 = test system: SNB-19
SNB-75 = test system: SNB-75
MCF7 = test system: MCF7
NCI/ADR-RES = test system: NCI/ADR-RES
RXF 393 = test system: RXF 393
DU-145 = test system: DU-145
Hs-578T = test system: Hs-578T

| SMILES | GI50 (786-0) | GI50 (A498) | GI50 (ACHN) | GI50 (CCRF-CEM) | GI50 (COLO 205) | GI50 (DMS-114) | GI50 (HCT-15) [µM] | GI50 (HOP-92) | GI50 (K562) | GI50 (Malme-3M) | GI50 (NCI-H23) | GI50 (OVCAR-5) | GI50 (SF-268) | GI50 (SNB-19) | GI50 (SNB-75) | GI50 (MCF7) | GI50 (NCI/ADR-RES) | GI50 (RXF 393) | GI50 (DU-145) | GI50 (Hs-578T) |
| --- | --- | --- | --- | --- | --- | --- | --- | --- | --- | --- | --- | --- | --- | --- | --- | --- | --- | --- | --- | --- |
| COc1ccc(/N=N/c2c(-c3ccccc3)nn(C(=O)CC(=O)Nc3cccc(Cl)c3)c2-c2ccccc2)cc1 | > 100 µM (inactive) | > 100 µM (inactive) | > 100 µM (inactive) | > 100 µM (inactive) | > 100 µM (inactive) | 45.8 µM (inactive) | > 100 | 40.6 µM (inactive) | 85.7 µM (inactive) | > 100 µM (inactive) | 22.6 µM (inactive) | 61.2 µM (inactive) | > 100 µM (inactive) | > 100 µM (inactive) | 6.08 µM (inactive) |  |  |  |  |  |
| CSc1nc(NC2OCC(O)C(O)C2O)c(N)c(=O)[nH]1 (stereo unspecified) |  | > 100 µM (inactive) |  | > 100 µM (inactive) | > 100 µM (inactive) | > 100 µM (inactive) | > 100 | > 100 µM (inactive) | > 100 µM (inactive) | > 100 µM (inactive) | > 100 µM (inactive) | > 100 µM (inactive) | > 100 µM (inactive) | > 100 µM (inactive) | > 100 µM (inactive) | > 100 µM (inactive) | > 100 µM (inactive) | > 100 µM (inactive) |  |  |
| COc1ccc(C(c2ccc(C(C)C)cc(OC)c2=O)c2ccc(C(C)C)cc(OC)c2=O)cc1 | 16.6 µM (inactive) | 17.7 µM (inactive) |  | 10.2 µM (inactive) | 17.2 µM (inactive) | 12.3 µM (inactive) | 12.7 | 13.6 µM (inactive) | 10.7 µM (inactive) | 16.5 µM (inactive) | 16.3 µM (inactive) | 20.1 µM (inactive) | 13.6 µM (inactive) | 15.9 µM (inactive) | 19.6 µM (inactive) |  |  | 4.15 µM (inactive) |  |  |
| CC(=O)OC[C@@H]1[C@H]2CC(=O)O[C@H]2C[C@H]1OC(C)=O | > 100 µM (inactive) | > 100 µM (inactive) | > 100 µM (inactive) | > 100 µM (inactive) | 24.7 µM (inactive) | > 100 µM (inactive) | > 100 | > 100 µM (inactive) |  | > 100 µM (inactive) |  | > 100 µM (inactive) | > 100 µM (inactive) | > 100 µM (inactive) | > 100 µM (inactive) |  |  | > 100 µM (inactive) |  |  |
| C=CCC1(CN(C)C)CC/C(=C\c2ccc(Cl)cc2)C1=O (stereo unspecified) | 38.1 µM (inactive) | 37.2 µM (inactive) | 44.8 µM (inactive) | 15.9 µM (inactive) | 27.2 µM (inactive) | 27.4 µM (inactive) | 25.1 | 66.8 µM (inactive) | 26.9 µM (inactive) | > 74.5 µM (inactive) | 47.5 µM (inactive) | > 77.4 µM (inactive) | 37.8 µM (inactive) | 77.3 µM (inactive) | 33 µM (inactive) |  |  | 31 µM (inactive) |  |  |
| C[C@]12CC[C@H](OCCC#N)CC1=CC[C@@H]1C2CC[C@]2(C)/C(=N/OCCC#N)CCC12 (stereo partly specified) | 33 µM (inactive) | > 100 µM (inactive) | 16.7 µM (inactive) | > 100 µM (inactive) | > 100 µM (inactive) | 5.12 µM (inactive) | > 100 | 14.3 µM (inactive) | > 22.4 µM (inactive) | 30.1 µM (inactive) | 10.8 µM (inactive) | > 100 µM (inactive) | > 100 µM (inactive) | 36.6 µM (inactive) | 28.1 µM (inactive) |  |  | 25.4 µM (inactive) |  |  |
| COC1(C)C(=O)N2C1N(C(=O)OCc1ccccc1)CC2(C)C (stereo unspecified) | > 100 µM (inactive) | > 100 µM (inactive) | > 100 µM (inactive) | > 100 µM (inactive) | > 100 µM (inactive) | > 100 µM (inactive) | > 100 |  | > 100 µM (inactive) | > 100 µM (inactive) | > 100 µM (inactive) |  | > 100 µM (inactive) | > 100 µM (inactive) | 44.9 µM (inactive) |  |  | > 100 µM (inactive) |  |  |
| CC[C@@]1(OC(=O)C(N)CCCCN)C(=O)OCc2c1cc1n(c2=O)Cc2cc3ccccc3nc2-1 (stereo partly specified) | 0.0148 µM (active) | 0.0802 µM (active) | 0.0135 µM (active) | < 0.01 µM (active) | 0.389 µM (active) | < 0.0157 µM (active) | 0.248 | 0.179 µM (active) | 0.103 µM (active) | 0.196 µM (active) | 0.0219 µM (active) | 0.238 µM (active) | 0.0169 µM (active) | 0.0176 µM (active) | 0.0336 µM (active) | 0.021 µM (active) | 0.0354 µM (active) | 0.122 µM (active) | < 0.0199 µM (active) | 4.52 µM (inactive) |
| Nc1ccn([C@@H]2C=C(CO)[C@@H](O)[C@H]2O)c(=O)n1 | 0.103 µM (active) | 1.84 µM (inactive) | 0.0559 µM (active) | 0.0617 µM (active) | 0.198 µM (active) | 0.417 µM (active) | 0.0916 | 0.224 µM (active) | 0.0681 µM (active) | 1.86 µM (inactive) | 0.169 µM (active) | 1.48 µM (inactive) | 0.269 µM (active) | 0.244 µM (active) | 2.07 µM (inactive) | 0.05 µM (active) | 0.092 µM (active) | 0.53 µM (active) | 0.0261 µM (active) | 2.24 µM (inactive) |
| Cc1ccc(/C=N/NS(=O)(=O)c2ccccc2)cc1 | > 100 µM (inactive) | > 100 µM (inactive) | > 100 µM (inactive) | > 100 µM (inactive) | > 100 µM (inactive) | > 100 µM (inactive) | > 100 | > 100 µM (inactive) | > 100 µM (inactive) | > 100 µM (inactive) | > 100 µM (inactive) | > 100 µM (inactive) | > 100 µM (inactive) |  | > 100 µM (inactive) |  |  | > 100 µM (inactive) |  |  |
| COCCOCC(=O)N(CCn1ccc(NC(c2ccccc2)(c2ccccc2)c2ccccc2)nc1=O)CCn1cnc2nc(N)[nH]c(=O)c21 | > 100 µM (inactive) | > 100 µM (inactive) | > 100 µM (inactive) | > 100 µM (inactive) | > 100 µM (inactive) | > 100 µM (inactive) | > 100 | > 100 µM (inactive) | > 100 µM (inactive) | > 100 µM (inactive) | > 100 µM (inactive) | > 100 µM (inactive) | > 100 µM (inactive) |  | > 100 µM (inactive) |  |  | > 100 µM (inactive) |  |  |
